PMC9127750, “Structure-based design of CDC42 effector interaction inhibitors for the treatment of cancer” (Cell reports, 2022)
“And” between values parts separate entries of the source, which are not always exact repeats. Equal entries are not always repeated.

System: WM3248 melanoma cells, 486 antibodies
Test: Reverse phase protein arrays (RPPA)
Assay type: cell-based, Human
Text: Pellets were snap frozen in liquid nitrogen and shipped to MD Anderson Cancer Center core RPPA facility for RPPA analysis (Table S5). Three biological replicates for each sample were generated.
Nomenclatures on the RPPA heatmaps: name_of_antibody.species_of_antibody.status_of_antibody. V - antibody validated; C - validation of antibody in progress; Q - antibody nonspecific; E – under evaluation; antibodies raised in M - mouse, G - goat, R - rabbit, or T - rat.

In the case of `CN(C)c1cccc(Nc2cc(-c3ccccc3)nc(C3CCNCC3)n2)c1` [ARN22089, N1,N1-dimethyl-N3-(6-phenyl-2-(piperidin-4-yl)pyrimidin-4-yl)benzene-1,3-diamine], the c.Jun_pS73.R.V normalized signal (Norm_20 Average) is reported as 0.769, the c.Kit.R.V normalized signal (Norm_20 Average) is reported as 1.333 and the c.Met_pY1234_Y1235.R.V normalized signal (Norm_20 Average) is reported as 1.008. For the same compound, the c.Myc.R.C normalized signal (Norm_20 Average) was 0.930, the cGAS.R.V normalized signal (Norm_20 Average) was 0.995 and the cdc2_pY15.R.C normalized signal (Norm_20 Average) was 0.940. The cdc25C.R.V normalized signal (Norm_20 Average) was 0.832, the C.Raf.R.C normalized signal (Norm_20 replicates) was 0.926 and 0.909 and 1.022 and the C.Raf_pS338.R.V normalized signal (Norm_20 replicates) was 1.047 and 0.977 and 1.202. For the same compound, the CA9.R.C normalized signal (Norm_20 replicates) was 0.834 and 0.857 and 0.980, the CD2.M.C normalized signal (Norm_20 replicates) was 0.856 and 0.882 and 0.876 and the CD4.R.V normalized signal (Norm_20 replicates) was 1.114 and 0.892 and 1.008. The CD5.M.C normalized signal (Norm_20 replicates) was 0.915 and 0.968 and 0.950, the CD20.R.C normalized signal (Norm_20 replicates) was 1.024 and 1.514 and 1.531 and the CD26.R.V normalized signal (Norm_20 replicates) was 1.033 and 0.940 and 1.351. For the same compound, the CD29.M.V normalized signal (Norm_20 replicates) was 0.857 and 0.910 and 0.908, the CD31.M.V normalized signal (Norm_20 replicates) was 0.884 and 0.896 and the CD38.R.C normalized signal (Norm_20 replicates) was 1.108 and 1.163. The CD44.R.C normalized signal (Norm_20 replicates) was 0.959 and 1.005, the CD45.M.V normalized signal (Norm_20 replicates) was 0.835 and 0.934 and the CD49b.M.V normalized signal (Norm_20 replicates) was 0.952 and 1.078 and 1.005. For the same compound, the CD68.M.C normalized signal (Norm_20 replicates) was 0.919 and 0.910, the CD74.M.V normalized signal (Norm_20 replicates) was 0.908 and 0.967 and 0.901 and the CD134.R.V normalized signal (Norm_20 replicates) was 0.960 and 0.966. The CD171.M.V normalized signal (Norm_20 replicates) was 0.652 and 0.837 and 0.648, the CDK1_pT14.R.C normalized signal (Norm_20 replicates) was 1.055 and 0.710 and 1.260 and the CDK9.R.V normalized signal (Norm_20 replicates) was 0.996 and 0.856 and 0.946. The CDKN2A.R.C normalized signal (Norm_20 replicates) was 0.854 and 0.981 and 0.927, the CDT1.R.V normalized signal (Norm_20 replicates) was 0.785 and 0.945 and 0.841 and the CENP.A.R.V normalized signal (Norm_20 replicates) was 0.821 and 2.735 and 1.018. The CHD1L.R.V normalized signal (Norm_20 replicates) was 0.858 and 0.933 and 1.056, the CIITA.R.C normalized signal (Norm_20 replicates) was 0.943 and 1.115 and 1.149 and the COG3.R.V normalized signal (Norm_20 replicates) was 0.982 and 0.987 and 1.164. For the same compound, the CRABP1.R.C normalized signal (Norm_20 replicates) was 0.873 and 1.063, the CRABP2.R.V normalized signal (Norm_20 replicates) was 0.668 and 1.048 and 0.808 and the CREB_pS133.R.C normalized signal (Norm_20 replicates) was 0.993 and 1.115 and 1.463. The CSK.R.C normalized signal (Norm_20 replicates) was 0.890 and 0.821 and 1.057, the Calnexin.R.V normalized signal (Norm_20 replicates) was 0.950 and 0.927 and 0.903 and the Caspase.3.cleaved.R.C normalized signal (Norm_20 replicates) was 1.050 and 1.052 and 0.937. The Caspase.7.cleaved..R.C normalized signal (Norm_20 replicates) was 1.145 and 0.913 and 0.981, the Caspase.8.M.Q normalized signal (Norm_20 replicates) was 0.921 and 1.010 and 0.953 and the Caspase.8.cleaved.R.C normalized signal (Norm_20 replicates) was 0.981 and 0.904 and 0.986. For the same compound, the Caveolin.1.R.V normalized signal (Norm_20 replicates) was 0.827 and 0.896 and 0.874, the Cdc6.R.V normalized signal (Norm_20 replicates) was 1.058 and 0.691 and 0.803 and the Cdc42.R.C normalized signal (Norm_20 replicates) was 0.945 and 1.025 and 1.019. For the same compound, the Chk1.M.C normalized signal (Norm_20 replicates) was 0.656 and 0.821 and 0.882, the Chk1_pS296.R.V normalized signal (Norm_20 replicates) was 0.970 and 0.828 and 1.051 and the Chk1_pS345.R.C normalized signal (Norm_20 replicates) was 1.119 and 1.167 and 1.225. The Chk2.M.V normalized signal (Norm_20 replicates) was 0.658 and 0.864 and 1.104, the Chk2_pT68.R.C normalized signal (Norm_20 replicates) was 0.997 and 1.290 and 1.096 and the Claudin.7.R.V normalized signal (Norm_20 replicates) was 0.881 and 1.747 and 1.050. The Collagen.VI.R.V normalized signal (Norm_20 replicates) was 1.201 and 0.989 and 0.848, the Complex.II.Subunit.M.V normalized signal (Norm_20 replicates) was 0.922 and 0.878 and 1.206 and the Connexin.43.R.C normalized signal (Norm_20 replicates) was 0.931 and 1.019. For the same compound, the Coup.TFII.R.C normalized signal (Norm_20 replicates) was 1.109 and 0.920 and 0.985, the Cox2.R.C normalized signal (Norm_20 replicates) was 1.356 and 1.253 and 1.438 and the Cox.IV.R.V normalized signal (Norm_20 replicates) was 1.130 and 0.864 and 0.981. The Creb.R.C normalized signal (Norm_20 replicates) was 0.982 and 1.104, the CtIP.R.V normalized signal (Norm_20 replicates) was 0.991 and 0.925 and 0.970 and the Cyclin.B1.R.V normalized signal (Norm_20 replicates) was 0.884 and 0.735 and 1.285. For the same compound, the Cyclin.D1.R.C normalized signal (Norm_20 replicates) was 0.990 and 1.056 and 0.913, the Cyclin.D3.M.V normalized signal (Norm_20 replicates) was 0.612 and 0.725 and 0.909 and the Cyclin.E1.R.V normalized signal (Norm_20 replicates) was 0.878 and 0.955 and 0.872. For the same compound, the Cyclophilin.F.M.V normalized signal (Norm_20 replicates) was 0.906 and 0.884 and 1.010, the D.a.Tubulin.R.V normalized signal (Norm_20 replicates) was 1.030 and 0.992 and the DAPK1_pS308.M.C normalized signal (Norm_20 replicates) was 1.481 and 2.154 and 2.593. The DAPK2.R.C normalized signal (Norm_20 replicates) was 0.964 and 1.008, the DDB.1.R.V normalized signal (Norm_20 replicates) was 1.193 and 0.735 and 0.837 and the DDR1.R.V normalized signal (Norm_20 replicates) was 0.952 and 1.004 and 1.031. For the same compound, the DDR1_pY513.R.C normalized signal (Norm_20 replicates) was 1.061 and 1.271 and 0.913, the DJ1.R.V normalized signal (Norm_20 replicates) was 1.006 and 0.828 and 0.954 and the DM.Histone.H3.R.V normalized signal (Norm_20 replicates) was 3.935 and 0.881. The DM.K9.Histone.H3.M.V normalized signal (Norm_20 replicates) was 2.137 and 0.933, the DNA.Ligase.IV.R.C normalized signal (Norm_20 replicates) was 0.747 and 1.076 and the DNA_POLG.R.V normalized signal (Norm_20 replicates) was 1.105 and 1.113 and 1.034. The c.Jun_pS73.R.V normalized signal (Norm_20 replicates) was 0.847 and 0.671 and 0.789, the c.Kit.R.V normalized signal (Norm_20 replicates) was 1.304 and 1.335 and 1.361 and the c.Met_pY1234_Y1235.R.V normalized signal (Norm_20 replicates) was 1.007 and 1.003 and 1.014. For the same compound, the c.Myc.R.C normalized signal (Norm_20 replicates) was 0.879 and 0.953 and 0.957, the cGAS.R.V normalized signal (Norm_20 replicates) was 0.887 and 1.171 and 0.926 and the cdc2_pY15.R.C normalized signal (Norm_20 replicates) was 0.878 and 0.795 and 1.146. The cdc25C.R.V normalized signal (Norm_20 replicates) was 0.758 and 0.751 and 0.986.
